Source: patent publication US7419984B2, “Pyrimidines and uses thereof” (Cell Therapeutics, Inc., priority 2002, dated 2008)

The molecules below were run against T1, human LPAAT-β (Homo sapiens, UniProt O15120) (assay: LPAAT-β cell-free assay). Conditions: Sf9 cell membrane overexpressing recombinant LPAAT-β.
T1 construct: the full-length human LPAAT-β cDNA was amplified by PCR; poly-histidine tag (N); made in house; host or cells: Sf9 insect cells (baculovirus, pFastBac HTc); the membrane fraction was used as the enzyme
T1 sequence (O15120 24-278): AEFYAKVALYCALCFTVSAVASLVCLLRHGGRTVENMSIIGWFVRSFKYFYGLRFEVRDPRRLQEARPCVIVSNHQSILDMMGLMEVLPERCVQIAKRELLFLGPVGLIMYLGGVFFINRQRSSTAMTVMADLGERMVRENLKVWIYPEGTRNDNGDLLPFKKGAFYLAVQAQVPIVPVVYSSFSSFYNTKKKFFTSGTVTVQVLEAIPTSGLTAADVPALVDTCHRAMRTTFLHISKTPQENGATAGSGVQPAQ
Assay type: biochemical
Excerpt: For the construction of Baculovirus expression vectors, the full-length human LPAAT-β cDNA was amplified by PCR from the DNA template pCE9.LPAAT-β (West et al., DNA Cell Bid. 16.691-701 (1997)) using the primers 5′-[…] […] […] […]-3′ (olpb1F; SEQ ID NO:1) and 5′-[…] […] […]-3′ (olpb1R; SEQ ID NO:2). The ˜870 bp fragment generated was reamplified by PCR using the primers 5′ […] […] […] […] ATC-3′ (olpb2F; SEQ ID NO:3) and 5′-[…] […] […]-3′ (olpb1R; SEQ ID NO:2). The ˜890 bp fragment generated was then cleaved with Sal I and Xba I for insertion into pFastBac™ HTc vector (Life Technologies, Gaithersberg, M.d.) between the Sal I and Xba I sites for the generation of the plasmid pFB.LPAAT-β. This plasmid was then transformed into E. coli DH10Bac™ (Life Technologies, Gaithersberg, M.d.) for the generation of recombinant Bacmid DNA for transfection in HighFive (Invitrogen, San Diego, Calif.) or SF9 insect cells for the production of recombinant Baculovirus stocks using the protocol described in the Bac-to-Bac® Baculovirus Expression System (Life Technologies, Gaithersberg, M.d.), a eukaryotic expression system for generating recombinant baculovirus through site-specific transposition in E. coli. Viral stocks harvested from the transfected cells can then be used to infect fresh insect cells for the subsequence expression of LPAAT-β fusion protein with a poly-histidine tag and a myc-epitope near its N-terminus. The membrane fraction from these Sf9 cells would be the source of LPAAT enzyme.
For the preparation of membranes from Sf9 Cells, all steps are performed on ice or at 4° C. Sf9 cell pellets (˜10^8 cells) were thawed and resuspended in 1-2 ml of buffer A (20 mM Hepes, pH 7.5, 1 mM DTT, 1 mM EDTA, 20% w/v glycerol, 1 mM Benzamidine, 1 μg/ml soybean trypsin inhibitor (SBTI), 1 μug/ml pepstatin A) w/o DTT but with 1 mM Pefabloc. The cells were lysed by sonication using a Branson Sonifier at output=2, duty cycle=2, 10 pulses each at 10 s. with the tip of small sonicator probe submerged but not touching the walls. DTT was then added to 1 mM from a 1 M stock. The samples were centrifuged at 1500 rpm for 5 min. The low speed supernatant was saved and centrifuged (TLA 100.3 rotor, polycarbonate tubes, 2 ml/tube or 1.5 ml/tube minimum) at 100000×g for 1 hr. The high speed pellet was resuspend in Buffer A with a probe sonicator (10 pulses @ output #2 and duty cycle 20%) as a source of LPAAT enzyme.
LPAAT-β catalyzes the transfer of an acyl group from a donor such as acyl-CoA to LPA. The transfer of the acyl group from acyl-CoA to LPA leads to the release of free CoA, which can be reacted with the thiol reagent, 5,5′-dithiobis(2-nitrobenzoic acid) (DTNB). The reaction between DTNB and the free sulfhydryl group from CoA generates a yellow-colored product, 3-carboxylato-4-nitrothiophenolate (CNP), that absorbs at 413 nm. LPAAT-β derived from Sf9 cell membrane overexpressing LPAAT-β were resuspended in HEPES saline buffer (20 mM HEPES pH 7.5, 150 mM NaCl), 1 mg/ml BSA and 72 μl aliquots were distributed into 96-well microtiter plates. 8 μl of compound of interest at 200 μM dissolved in 100% DMSO was added into each well. […] of 1 mM 18:1-CoA and 1 mM sn-1-18:1 lysoPA was then added to each well to initiate the reaction and allowed to run at room temperature for 25 min. 100 μl of 1 mM DTNB in 100% ethanol was then added to each well to quench the reaction and for color development. The absorbance at 405 nm, measured using a spectrophotometer plate reader, is proportional to the activity of LPAAT-2 in the sample. This colorimetric assay was used for the high throughput screening of LPAAT inhibitors.
The radiometric assay was carried out in Sf9 cell membrane overexpressing LPAAT-β resuspended in HEPES-saline buffer, pH 7.5, 1 mg/ml BSA, 1 mM EDTA and 200 μM [^14C]18:1-CoA and 200 μM sn-1-18:1 lysoPA.

| SMILES | IC50 [nM] |
| --- | --- |
| CCOc1ccc(Cl)cc1-c1cc(Nc2ccc(COC(=O)CCC(=O)O)cc2)nc(N)n1 [Example 63, Succinic acid mono-{4-[2-amino-6-(5-chloro-2-ethoxy-phenyl)-pyrimidin-4-ylamino]-benzyl}-ester] | 83 |
| CCOc1ccc(Cl)cc1-c1cc(Nc2ccc(COC(=O)CN)cc2)nc(N)n1 [Example 64, Amino acetic acid-4-[2-amino-6-(5-chloro-2-ethoxy-phenyl)-pyrimidin-4-ylamino]-benzyl ester] | 1500 |
| CCOc1ccc(Cl)cc1-c1cc(Nc2ccc(CO)cc2)nc(NC)n1 [Example 65, {4-[6-(5-Chloro-2-ethoxy-phenyl)-2-methylamino-pyrimidin4-ylamino]-phenyl}-methanol] | 140 |
| CCOc1ccc(Cl)cc1-c1cc(Nc2ccc(-c3cnco3)cc2)nc(N)n1 [Example 66, 6-(5-Chloro-2-ethoxy-phenyl)-N*4*-(4-oxazol-5-yl-phenyl)-pyrimidine-2,4-diamine] | 450 |
| CCOc1ccc(Br)cc1-c1cc(Nc2ccc(CCO)cc2)nc(N)n1 [Example 70, 2-{4-[2-Amino-6-(5-bromo-2-ethoxy-phenyl)-pyrimidin-4-ylamino]-phenyl}-ethanol] | 29 |
| Cc1ccc(C)c(-c2cc(Nc3ccc(CCO)cc3)nc(N)n2)c1 [Example 74, 2-{4-[2-Amino-6-(2,5-dimethyl-phenyl)-pyrimidin-4-ylamino]-phenyl}-ethanol] | 550 |
| CNC(=O)c1cc(Nc2cc(-c3cc(Br)ccc3C)nc(N)n2)ccc1Cl [Example 75, 5-[2-Amino-6-(5-bromo-2-methyl-phenyl)-pyrimidin-4-ylamino]-2-chloro-N-methyl-benzamide] | 180 |
| Cc1ccc(F)cc1-c1cc(Nc2ccc(C(F)(F)F)cc2)nc(N)n1 [Example 76, 6-(5-Fluoro-2-methyl-phenyl)-N*4*-(4-trifluoromethyl-phenyl)-pyrimidine-2,4-diamine] | 710 |
| CNC(=O)c1cc(Nc2cc(-c3cc(Cl)ccc3C)nc(N)n2)ccc1Br [Example 77, 5-[2-Amino-6-(5-chloro-2-methyl-phenyl)-pyrimidin4-ylamino]-2-bromo-N-methyl-benzamide] | 370 |
| CNC(=O)c1cc(Nc2cc(-c3cc(Br)ccc3C)nc(N)n2)ccc1Br [Example 78, 5-[2-Amino-6-(5-bromo-2-methyl-phenyl)-pyrimidin-4-ylamino]-2-bromo-N-methyl-benzamide] | 210 |
| Cc1ccc(Cl)cc1-c1cc(Nc2ccc3c(c2)C(=O)NC3=O)nc(N)n1 [Example 79, 5-[2-Amino-6-(5-chloro-2-methyl-phenyl)-pyrimidin4-ylamino]-isoindole-1,3-dione] | 900 |
| Nc1nc(Nc2ccc(Cl)cc2)cc(-c2cc(Cl)ccc2OCC(F)(F)F)n1 [Example 89, N*4*-(4-Chloro-phenyl)-6-[5-chloro-2-(2,2,2-trifluoro-ethoxy)-phenyl]-pyrimidine-2,4-diamine] | 100 |
| CCOc1ccc(Cl)cc1-c1cc(Nc2ccc(OCCO)cc2)nc(N)n1 [Example 90, 2-{4-[2-Amino-6-(5-chloro-2-ethoxy-phenyl)-pyrimidin-4-ylamino]-phenoxy}-ethanol] | 780 |
| Nc1nc(Nc2ccc(Br)cc2)cc(-c2cc(Br)ccc2OCC(F)(F)F)n1 [Example 91, N*4*-(4-Bromo-phenyl)-6-[5-bromo-2-(2,2,2-trifluoro-ethoxy)-phenyl]-pyrimidine-2,4-diamine] | 190 |
| CCOc1ccc(Cl)cc1-c1cc(Nc2ccc(CCCO)cc2)nc(N)n1 [Example 92, 3-{4-[2-Amino-6-(5-chloro-2-ethoxy-phenyl)-pyrimidin4-ylamino]-phenyl}-propan-1-ol] | 230 |
| CCOc1ccc(Cl)cc1-c1cc(Nc2ccc(CCCCO)cc2)nc(N)n1 [Example 93, 4-{4-[2-Amino-6-(5-chloro-2-ethoxy-phenyl)-pyrimidin4-ylamino]-phenyl}-butan-1-ol] | 120 |
| CCOc1ccc(Cl)cc1-c1cc(Nc2ccc(F)cc2)nc(N)n1 [Example 94, 6-(5-Chloro-2-ethoxy-phenyl)-N*4*-(4-fluoro-phenyl)-pyrimidine-2,4-diamine] | 32 |
| CCOc1ccc(Cl)cc1-c1cc(Nc2ccc(CCCC(=O)O)cc2)nc(N)n1 [Example 95, 4-{4-[2-Amino-6-(5-chloro-2-ethoxy-phenyl)-pyrimidin4-ylamino]-phenyl}-butyric acid] | 310 |
| CCOc1ccc(Cl)cc1-c1cc(Nc2ccc(S(N)(=O)=O)cc2)nc(N)n1 [Example 96, 4-[2-Amino-6-(5-chloro-2-ethoxy-phenyl)-pyrimidin-4-ylamino]-benzenesulfonamide] | 73 |

Next, values leading:

| IC50 [nM] | SMILES |
| --- | --- |
| 80 | CCOc1ccc(Br)cc1-c1cc(Nc2ccc(CO)cc2)nc(N)n1 [Example 62, {4-[2-Amino-6-(5-bromo-2-ethoxy-phenyl)-pyrimidin4-ylamino]-phenyl}-methanol] |
| 210 | COc1ccc(C)c(-c2cc(Nc3ccc(Cl)cc3)nc(N)n2)c1 [Example 71, N*4*-(4-Chloro-phenyl)-6-(5-methoxy-2-methyl-phenyl)-pyrimidine-2,4-diamine] |
| 450 | Nc1nc(Nc2ccc(Cl)cc2)cc(-c2cc(Br)ccc2O)n1 [Example 72, 2-[2-Amino-6-(4-chloro-phenylamino)-pyrimidin-4-yl]-4-bromo-phenol] |
| 160 | Cc1ccc(C)c(-c2cc(Nc3ccc(Cl)cc3)nc(N)n2)c1 [Example 73, N*4*-(4-Chloro-phenyl)-6-(2,5-dimethyl-phenyl)-pyrimidine-2,4-diamine] |
| 190 | Cc1ccc(Br)cc1-c1cc(Nc2ccc(N=[N+]=[N-])cc2)nc(N)n1 [Example 81, [6-(5-Bromo-2-methyl-phenyl)-(4-azido-phenyl)-pyrimidine]-2,4-diamine] |
| 100 | Cc1ccc(Br)cc1-c1cc(Nc2ccc(C(F)(F)F)cc2)nc(N)n1 [Example 82, 6-(S-Bromo-2-methyl-phenyl)-N*4*-(4-trifluoromethyl-phenyl)-pyrimidine-2,4-diamine] |
| 31 | Cc1ccc(Br)cc1-c1cc(Nc2ccc(Cl)cc2)nc(N)n1 [Example 84, 6-(5-Bromo-2-methyl-phenyl)-N*4*-(4-chloro-phenyl)-pyrimidine-2,4-diamine] |
| 18 | Cc1ccc(Br)cc1-c1cc(Nc2ccc(Br)cc2)nc(N)n1 [Example 85, 6-(5-Bromo-2-methyl-phenyl)-N*4*-(4-bromo-phenyl)-pyrimidine-2,4-diamine] |
| 40 | Cc1ccc(Br)cc1-c1cc(Nc2ccc(C#N)cc2)nc(N)n1 [Example 86, 4-[2-Amino-6-(5-bromo-2-methyl-phenyl)-pyrimidin-4-ylamino]-benzonitrile] |
| 21 | Cc1ccc(Br)cc1-c1cc(Nc2ccc([N+](=O)[O-])cc2)nc(N)n1 [Example 88, 6-(5-Bromo-2-methyl-phenyl)-N*4*-(4-nitro-phenyl)-pyrimidine-2,4-diamine] |
